Test results reported in paper PMC11052718, “PMF-seq: a highly scalable screening strategy for linking genetics to mitochondrial bioenergetics” (Nature Metabolism, 2024).
Blank lines part the entries; values can stand above or below the compound they belong to.

Tests used:
human LDHD [1] = biological target: T1, human LDHD (Homo sapiens, UniProt Q86WU2); test: cytochrome c reduction, absorbance at […] nm; format: biochemical; conditions: 200 µM bovine heart cytochrome c as electron acceptor, 50 mM potassium phosphate pH 8.5; 10 mM substrate
T1 construct: ~50 kDa predicted, dimer by gel filtration
T1 sequence (Q86WU2 53-484 isoform Q86WU2-2): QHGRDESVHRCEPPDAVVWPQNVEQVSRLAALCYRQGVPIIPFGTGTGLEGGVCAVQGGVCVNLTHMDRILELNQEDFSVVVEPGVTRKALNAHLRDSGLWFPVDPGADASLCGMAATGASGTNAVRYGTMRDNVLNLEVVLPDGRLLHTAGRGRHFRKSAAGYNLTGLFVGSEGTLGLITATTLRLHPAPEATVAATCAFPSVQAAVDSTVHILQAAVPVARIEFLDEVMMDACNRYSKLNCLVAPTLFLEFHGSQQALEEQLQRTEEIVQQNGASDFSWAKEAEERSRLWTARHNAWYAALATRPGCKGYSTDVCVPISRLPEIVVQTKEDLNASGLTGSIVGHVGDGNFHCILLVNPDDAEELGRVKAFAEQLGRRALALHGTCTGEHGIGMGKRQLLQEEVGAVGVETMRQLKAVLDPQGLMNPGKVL

human LDHD [2] = biological target: T1, human LDHD; test: cytochrome c reduction, absorbance at […] nm; format: biochemical; conditions: 200 µM bovine heart cytochrome c as electron acceptor, 50 mM potassium phosphate pH 8.5
[3] = biological target: human D-lactate dehydrogenase (LDHD) isoform 2 (Komagataella phaffii | human); test: SEC; Superdex 200 10/300 GL, after elution from Talon cobalt resin; running buffer not stated

Compound: CC[C@@H](O)C(=O)O [D-2-hydroxybutyrate]
relative initial rate at 10 mM (human LDHD [1]): we identified D-2-hydroxybutyrate as another LDHD substrate that can be used to reduce cytochrome c

Km (human LDHD [2]): 112 µM
Compound: C[C@@H](O)C(=O)O [D-lactate]

stoichiometry N [3]: 2
Compound: human D-lactate dehydrogenase (LDHD) isoform 2 (enzyme)
